In US9593149B2, “Amylin and calcitonin receptor agonist” (Novo Nordisk A/S, priority 2014, dated 2017):
Converted amounts (≈) assume the structure as drawn. Numbered stars: 1 amine (or outer) side, 2 acyl side, 3 side chain; on linkers, the order of the positions; unused ones are H or OH. Peptide text beside a SMILES is read from it. * marks the point of attachment. C18 diacid = O=C(O)CCCCCCCCCCCCCCCCC(=O)*; γGlu = O=C(O)[C@H](CCC(=O)[*:2])N[*:1]

Key:
[1] = biological target: T1, human calcitonin (a) receptor, BHK570 cells (Homo sapiens, UniProt P30988); assay: Assay (II)b functional CRE-luciferase assay without albumin, human calcitonin receptor; assay type: cell-based; conditions: Tested without HSA; read-out: hCTR funct. EC50
T1 construct: host or cells: BHK570
T1 sequence (P30988 25-474): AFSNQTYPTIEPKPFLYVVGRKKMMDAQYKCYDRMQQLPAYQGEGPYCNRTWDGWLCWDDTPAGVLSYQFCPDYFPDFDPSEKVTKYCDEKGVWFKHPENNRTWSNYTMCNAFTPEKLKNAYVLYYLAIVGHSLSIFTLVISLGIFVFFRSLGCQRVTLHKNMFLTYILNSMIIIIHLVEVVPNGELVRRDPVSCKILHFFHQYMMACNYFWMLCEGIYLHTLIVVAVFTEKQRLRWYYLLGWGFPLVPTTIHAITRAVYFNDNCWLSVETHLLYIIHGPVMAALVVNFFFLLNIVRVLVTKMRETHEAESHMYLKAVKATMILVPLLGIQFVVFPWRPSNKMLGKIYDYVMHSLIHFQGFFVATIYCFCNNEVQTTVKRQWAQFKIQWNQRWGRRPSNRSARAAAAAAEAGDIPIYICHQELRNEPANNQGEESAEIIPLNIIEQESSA
How it was run: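 BHK570 cells stably expressing human calcitonin receptor with CRE-luciferase reporter, plus RAMP-3 for the amylin 3(a) line. Cells stimulated 3 hours at 37 °C in albumin-free assay medium (0.1% ovalbumin, 10 mM Hepes pH 7.4); cAMP-driven luciferase read by luminescence.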

[2] = biological target: T2, human calcitonin receptor, BHK tk'ts 13 cells (Homo sapiens, UniProt P30988); assay: Assay (VIIa) binding to the human calcitonin receptor (whole cell); conditions: read-out: hCT-R binding IC50
T2 construct: expressed in transfected cells; host or cells: BHK tk'ts 13
T2 sequence (P30988 25-474): T1 sequence (P30988 25-474)
Procedure: Assay (VIIa)—Determination of Binding to the Human Calcitonin Receptor (Whole Cell Binding)
The binding assay was performed using a BHK tk'ts 13 cell line was stably transfected with the human calcitonin receptor, and a CRE-responsive luciferase reporter gene.
The day before the assay the cells were Seeded into Poly-D-Lysin coated 384W Opaque White, BD BioCoat plates (10000 cells/well) and Incubated overnight at 37° C., 5% CO2, 95% humidity. Then, the cells were washed in HBSS (4° C.), and incubated overnight at 4° C. in a binding buffer containing test compounds, 50 pM [125I]-human calcitonin, media w/o phenol red, 500 ml 0.1% ovalbumin (5 ml 10% ovalbumin) 10 mM Hepes (5 ml 1M) 1× Glutamin (5 ml 100×) 1% P/S (5 ml 100%) Complete (1 tablet/50 ml) 0.1% Pluronic F68®. The morning after, the plates were washed three times in HBSS (4° C.), and lyzed in Lysis buffer (0.1 M NaOH), 1% SDS. Scintillation cocktail (MicroScint40®) was added and the plates were shaken at 500 rpm for a short period. The plate was incubated at room temperature in the dark for 1 hour and Read on a TopCounter™ (Packard). The IC50 was calculated using (one site binding competition analysis) GraphPad Prism5 as a measure of receptor affinity. Assay (VIII)—Determination of Binding to the Rat Calcitonin Receptor

[3] = biological target: T3, human amylin receptor (human calcitonin receptor + human RAMP3), BHK tk'ts 13 cells (Homo sapiens, UniProt O60896+P30988); assay: Assay (Va) binding to the human amylin receptor (whole cell); conditions: read-out: hAmylin-R binding IC50
T3 construct: expressed in transfected cells; host or cells: BHK tk'ts 13
T3 sequence (O60896 24-148, one chain of several): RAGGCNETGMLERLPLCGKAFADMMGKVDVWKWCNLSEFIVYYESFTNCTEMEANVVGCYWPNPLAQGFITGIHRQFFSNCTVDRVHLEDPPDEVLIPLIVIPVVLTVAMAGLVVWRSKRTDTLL
Procedure: The day before the assay the cells were Seeded into Poly-D-Lysin coated 384W Opaque White, BD BioCoat plates (10000 cells/well) and Incubated overnight at 37° C., 5% CO2, 95% humidity.

[4] = Assay (IV) determination of solubility; assay type: physicochemical
Procedure: Assay (IV)—Determination of Solubility
The mimylin peptide was dissolved in water at ˜500 nmol/ml and mixed 1:1 with a series of buffers (100 mM glycylglycine pH 3.0, 100 mM glycylglycine pH 4.0, 100 mM glycylglycine pH 5.0, 100 mM bistrispropane pH 6.0, 100 mM bistrispropane pH 6.5, 100 mM bistrispropane pH 7.0, 100 mM bistrispropane pH 7.5, 100 mM bistrispropane pH 8.0).

[5] = biological target: T4, human amylin 3(a) receptor (human calcitonin receptor + RAMP-3), BHK570 cells (Homo sapiens, UniProt O60896+P30988); assay: Assay (II)b functional CRE-luciferase assay without albumin, human amylin receptor; assay type: cell-based; conditions: Tested without HSA; read-out: hAmylin-R funct. EC50
T4 construct: host or cells: BHK570
T4 sequence (O60896 24-148, one chain of several): as above
How it was run: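 Agonism measured as CRE-driven luciferase luminescence after 3 h sample exposure at 37 °C, without albumin (0.1% ovalbumin, Hepes pH 7.4 medium). Reporter cells: BHK570 carrying human calcitonin receptor, co-transfected with RAMP-3 to form the amylin 3(a) receptor.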

[6] = biological target: T4, human amylin 3(a) receptor (human calcitonin receptor + RAMP-3), BHK570 cells; assay: Assay (II)a functional CRE-luciferase assay with albumin, human amylin receptor; assay type: cell-based; conditions: Tested with HSA; read-out: hAmylin-R funct. EC50
How it was run: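 BHK570 cells stably carry a CRE-luciferase reporter and the calcitonin receptor; co-transfected RAMP-3 gives the amylin 3(a) receptor line. Cells were treated for 3 h at 37 °C in DMEM with 10% FBS and 10 mM Hepes, pH 7.4. cAMP-driven luciferase was read by LucLite luminescence after 30 min at RT.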

EC50 [1] [nM] | IC50 [2] [nM] | IC50 [3] [nM] | solubility at 18 h ([4]; bistrispropane buffer, pH 6.5) [µM] | solubility at 18 h ([4]; bistrispropane buffer, pH 7.5) [µM] | solubility at 18 h ([4]; bistrispropane buffer, pH 6.0) [µM] | solubility at 18 h ([4]; bistrispropane buffer, pH 7.0) [µM] | solubility at 18 h ([4]; bistrispropane buffer, pH 8.0) [µM] | solubility at 18 h ([4]; glycylglycine buffer, pH 3.0) [µM] | solubility at 18 h ([4]; glycylglycine buffer, pH 4.0) [µM] | solubility at 18 h ([4]; glycylglycine buffer, pH 5.0) [µM] | EC50 [5] [nM] | EC50 [6] [nM] | Structure (SMILES)
0.007 | 0.413 | 0.4 | ≥ 200 | ≥ 200 | ≥ 200 | ≥ 200 | ≥ 200 | ≥ 200 | 218 (≈ 822 µg/mL) | ≥ 200 | 0.01 | – | CC[C@H](C)[C@H](NC(=O)[C@H](C)NC(=O)[C@@H](NC(=O)[C@H](CO)NC(=O)[C@@H](NC(=O)[C@H](CCC(=O)O)NC(=O)[C@H](CO)NC(=O)[C@H](C)NC(=O)[C@H](CCC(=O)O)NC(=O)CCCCCCCCCCCCCCCCC(=O)O)[C@@H](C)CC)[C@@H](C)O)C(=O)N[C@@H](CC(C)C)C(=O)NCC(=O)N[C@@H](CCCNC(=N)N)C(=O)N[C@@H](CC(C)C)C(=O)N[C@@H](CO)C(=O)N[C@@H](C)C(=O)N[C@@H](CCC(=O)O)C(=O)N[C@@H](CC(C)C)C(=O)N[C@@H](Cc1c[nH]cn1)C(=O)N[C@@H](CCC(=O)O)C(=O)N[C@@H](CC(C)C)C(=O)N[C@@H](C)C(=O)N[C@H](C(=O)N[C@@H](CC(C)C)C(=O)N1CCC[C@H]1C(=O)N[C@@H](CCCNC(=N)N)C(=O)N[C@H](C(=O)N[C@@H](CCC(=O)O)C(=O)N[C@H](C(=O)NCC(=O)N1CCC[C@H]1C(=O)N[C@@H](CCC(=O)O)C(=O)N[C@@H](CO)C(=O)N1CCC[C@H]1C(N)=O)[C@@H](C)O)[C@@H](C)O)[C@@H](C)O [compound 25, [N-terminal(C18 diacid), 5I, 9I]mimylin]
0.03 | 0.651 | 0.652 | ≥ 200 | ≥ 200 | ≥ 200 | ≥ 200 | ≥ 200 | ≥ 200 | ≥ 200 | ≥ 200 | 0.042 | 0.03 | CC(C)C[C@H](NC(=O)[C@H](CCC(=O)O)NC(=O)[C@H](Cc1c[nH]cn1)NC(=O)[C@H](CC(C)C)NC(=O)[C@H](CCC(=O)O)NC(=O)[C@H](C)NC(=O)[C@H](CO)NC(=O)[C@H](CC(C)C)NC(=O)[C@H](CCCNC(=N)N)NC(=O)CNC(=O)[C@H](CC(C)C)NC(=O)[C@@H](NC(=O)[C@H](C)NC(=O)[C@@H](NC(=O)[C@@H](NC(=O)[C@H](CC(C)C)NC(=O)[C@H](CCC(=O)O)NC(=O)[C@H](CO)NC(=O)[C@H](C)NC(=O)CC[C@H](NC(=O)CCCCCCCCCCCCCCCCC(=O)O)C(=O)O)[C@@H](C)O)[C@@H](C)O)C(C)C)C(=O)N[C@@H](C)C(=O)N[C@H](C(=O)N[C@@H](CC(C)C)C(=O)N1CCC[C@H]1C(=O)N[C@@H](CCCNC(=N)N)C(=O)N[C@H](C(=O)N[C@@H](CCC(=O)O)C(=O)N[C@H](C(=O)NCC(=O)N[C@@H](CO)C(=O)NCC(=O)N[C@H](C(=O)N1CCC[C@H]1C(N)=O)[C@@H](C)O)[C@@H](C)O)[C@@H](C)O)[C@@H](C)O [compound 94, [N-terminal(C18 diacid-gGlu), des1, 6T, 9V, 30S, 31G, 32T]mimylin] ({C18 diacid-γGlu}-ASELTTAVLGRLSAELHELATLPRTETGSGTP-NH2)
